{
  "source": "paper PMC6356742",
  "about": "“Novel Characteristics of Mitochondrial Electron Transport Chain from Eimeria tenella” (Genes, 2019)",
  "key": {"bovine complex II": {"system": "bovine complex II", "settings": "cited from earlier work"}, "Succinate-cyt c activity [1]": {"system": "Succinate-cyt c activity", "settings": "Rat; cited from earlier work"}, "P. y. yoelii complex II": {"system": "P. y. yoelii complex II", "settings": "cited from earlier work; for IC50: P. y. yoelii, read-out: IC50 of Succinate-cyt c Activity"}, "[2]": {"biological_target": "succinate-cytochrome c reductase activity (Complex II-III)", "experiment": "Inhibition of succinate-cytochrome c reductase activity (Complex II-III) of E. tenella mitochondria-rich fraction", "format": "biochemical, Eimeria tenella", "settings": "for IC50: E. tenella mitochondria-rich fraction, complex II-III activity, read-out: IC50 of Succinate-cyt c Activity", "experimental": "(§1) All enzyme assays were performed using 5–10 µg of the mitochondria-rich fraction using black quartz cuvettes in 0.6 mL reaction mixture at 25 °C. The reagents used in each assay were mixed with a reaction buffer containing 50 mM potassium phosphate (pH 7.4) (KPi Buffer) and 2 mM EDTA.\nCytochrome c–linked NADH, G3P, malate, succinate, and DHO dehydrogenase activities were determined in a reaction mixture containing 30 µM horse heart cytochrome c and 2 mM KCN at 550 nm (ε = 19 mM^−1 cm^−1) by adding 0.2 mM NADH, 5 mM malate, 5 mM G3P, 8.3 mM succinate, and 0.4 mM DHO, respectively, into the reaction buffer.\n(§2) […]; As the positive control for complex II-III inhibition assay, 0.1 μM of stigmatellin (complex III inhibitor) was used."}, "E. tenella complex II": {"biological_target": "E. tenella complex II (Eimeria tenella, UniProt U6KGY0+U6KWN9)", "sequence (U6KGY0 entry or part of it)": "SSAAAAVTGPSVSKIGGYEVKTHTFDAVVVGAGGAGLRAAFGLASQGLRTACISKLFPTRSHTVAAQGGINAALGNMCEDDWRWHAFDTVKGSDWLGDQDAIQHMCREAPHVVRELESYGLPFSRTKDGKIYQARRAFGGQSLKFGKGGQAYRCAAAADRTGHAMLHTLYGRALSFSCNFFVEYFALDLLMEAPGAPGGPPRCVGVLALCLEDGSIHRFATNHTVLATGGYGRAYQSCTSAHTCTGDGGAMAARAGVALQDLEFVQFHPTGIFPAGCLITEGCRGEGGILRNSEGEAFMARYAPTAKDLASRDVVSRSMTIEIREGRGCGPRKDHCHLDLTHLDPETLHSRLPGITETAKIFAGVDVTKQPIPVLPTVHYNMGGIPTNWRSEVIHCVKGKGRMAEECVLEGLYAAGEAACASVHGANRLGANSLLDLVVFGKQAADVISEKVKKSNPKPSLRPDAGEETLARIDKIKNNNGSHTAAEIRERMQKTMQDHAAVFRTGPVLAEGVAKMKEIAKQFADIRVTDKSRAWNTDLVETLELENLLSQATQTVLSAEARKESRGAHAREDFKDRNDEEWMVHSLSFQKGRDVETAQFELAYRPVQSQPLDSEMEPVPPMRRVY", "sequence (U6KWN9 entry or part of it)": "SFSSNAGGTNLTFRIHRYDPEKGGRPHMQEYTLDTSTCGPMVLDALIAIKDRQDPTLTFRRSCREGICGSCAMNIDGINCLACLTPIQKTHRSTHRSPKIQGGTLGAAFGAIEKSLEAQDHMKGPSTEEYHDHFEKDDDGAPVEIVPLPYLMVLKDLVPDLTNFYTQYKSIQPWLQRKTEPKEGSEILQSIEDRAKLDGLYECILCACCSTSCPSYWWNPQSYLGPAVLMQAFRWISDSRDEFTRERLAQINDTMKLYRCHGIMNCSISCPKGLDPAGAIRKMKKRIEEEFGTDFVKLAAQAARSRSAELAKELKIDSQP", "experiment": "Inhibition of succinate-dUQ (SQR) activity of E. tenella complex II", "format": "biochemical", "settings": "for Inhibition of E. tenella complex II: even at higher concentration of 50 μM", "experimental": "as §1\nIndividual G3PDH, MQO, SDH, and DHODH activities were assayed at 278 nm in the presence of each substrate as described above, however, instead of cytochrome c, 50 µM of decylubiquinone (dUQ) (ε = 15 mM^−1 cm^−1) was added. The NDH-2 activity was measured following the consumption of NADH at 340 nm.\nas §2"}, "Succinate-cyt c activity [3]": {"system": "Succinate-cyt c activity", "settings": "Porcine; cited from earlier work"}, "Ascaris suum complex II": {"system": "Ascaris suum complex II", "settings": "cited from earlier work"}, "complex II [4]": {"system": "complex II", "design": "method as in PMID 19505951", "settings": "read-out: IC50 for complex II from L. donovani; cited from earlier work"}, "complex II [5]": {"system": "complex II", "design": "method as in PMID 19505951", "settings": "read-out: IC50 for complex II from Leishmania tarentolae; cited from earlier work"}, "complex II [6]": {"system": "complex II", "design": "method as in PMID 19505951", "settings": "read-out: IC50 for complex II from T. cruzi; cited from earlier work"}, "complex II [7]": {"system": "complex II", "design": "method as in PMID 19505951", "settings": "read-out: IC50 for complex II from Trypanosoma brucei; cited from earlier work"}, "[8]": {"system": "NADH oxidase activity (NDH-2-Complex III-IV)", "experiment": "NADH oxidase activity (NDH-2-Complex III-IV) of E. tenella mitochondria-rich fraction", "format": "biochemical, Eimeria tenella", "settings": "for NADH oxidase specific activity after addition: consecutive additions: 2 mM KCN, then 2 mM fumarate, then 5 mM malonate, without additions 5.9 ± 0.9, experiment C"}},
  "note": "“Also recorded” adds a separate entry of the source. Like-named read-outs stand apart in the source and are kept apart here.",
  "data": [
    {"smiles": "COc1[nH]c(=O)c(C(=O)[C@@H](C)C[C@H](C)[C@@H](Cl)CCl)c(O)c1OC", "note": "[Atpenin A5, atpenin A5]", "values": [
      {"measurement": "IC50", "setting": "bovine complex II", "value": 0.004, "unit": "µM"},
      {"measurement": "IC50", "setting": "Succinate-cyt c activity [1]", "value": "0.007 ± 0.0003", "unit": "µM"},
      {"measurement": "IC50", "setting": "P. y. yoelii complex II", "value": "4.2 ± 0.2", "unit": "µM"},
      {"measurement": "Fold lower sensitivity of P. y. yoelii complex II to atpenin A5", "setting": "P. y. yoelii complex II", "value": "about 600 fold"},
      {"measurement": "IC50", "setting": "[2]", "value": "> 50", "unit": "µM"}
    ]},
    {"smiles": "CC1=C(C(=O)Nc2ccccc2)SCCO1", "note": "[Carboxin, carboxin]", "values": [
      {"measurement": "Inhibition of E. tenella complex II", "setting": "E. tenella complex II", "value": "did not inhibit"},
      {"measurement": "IC50", "setting": "bovine complex II", "value": 1, "unit": "µM"},
      {"measurement": "IC50", "setting": "Succinate-cyt c activity [1]", "value": "3.8 ± 0.1", "unit": "µM"},
      {"measurement": "IC50", "setting": "P. y. yoelii complex II", "value": "3.6 ± 1", "unit": "µM"},
      {"measurement": "IC50", "setting": "[2]", "value": "> 50", "unit": "µM"}
    ]},
    {"smiles": "CC(C)Oc1cccc(NC(=O)c2ccccc2C(F)(F)F)c1", "note": "[Flutolanil, flutolanil]", "values": [
      {"measurement": "Inhibition of E. tenella complex II", "setting": "E. tenella complex II", "value": "did not inhibit"},
      {"measurement": "IC50", "setting": "Succinate-cyt c activity [3]", "value": "> 50", "unit": "µM"},
      {"measurement": "IC50", "setting": "Succinate-cyt c activity [1]", "value": "> 100", "unit": "µM"},
      {"measurement": "IC50", "setting": "P. y. yoelii complex II", "value": "> 100", "unit": "µM"},
      {"measurement": "IC50", "setting": "[2]", "value": "> 50", "unit": "µM"},
      {"measurement": "IC50", "setting": "Ascaris suum complex II", "value": 0.081, "unit": "µM"}
    ]},
    {"smiles": "Cc1cc(O)c2c(c1)O[C@@]1(C)CC[C@H]3C(C)(C)CCC[C@]34CO[C@@H]2[C@H]41", "note": "[Siccanin, siccanin]", "values": [
      {"measurement": "Inhibition of the SQR activity of complex II", "setting": "E. tenella complex II; E. tenella", "value": "did not inhibit"},
      {"measurement": "IC50", "setting": "E. tenella complex II; E. tenella, SQR activity of complex II, read-out: IC50 determined for succinate-dUQ activity", "value": "> 50", "unit": "µM"},
      {"measurement": "Inhibition of E. tenella complex II", "setting": "E. tenella complex II", "value": "did not inhibit"},
      {"measurement": "IC50", "setting": "Succinate-cyt c activity [3]", "value": "861 ± 822", "unit": "µM"},
      {"measurement": "IC50", "setting": "complex II [4]", "value": 1.17, "unit": "µM"},
      {"measurement": "IC50", "setting": "Succinate-cyt c activity [1]", "value": "9.3 ± 1", "unit": "µM"},
      {"measurement": "IC50", "setting": "complex II [5]", "value": 0.19, "unit": "µM"},
      {"measurement": "IC50", "setting": "complex II [6]", "value": 1.48, "unit": "µM"},
      {"measurement": "IC50", "setting": "[2]", "value": "4 ± 0.6", "unit": "µM"},
      {"measurement": "IC50", "setting": "complex II [7]", "value": 0.368, "unit": "µM"}
    ]},
    {"smiles": "C/C=C(C)/C=C/C=C/[C@H](OC)[C@@H](C)[C@@H](OC)[C@@H](C)CCc1oc2c(O)c(OC)cc(OC)c2c(=O)c1C", "note": "[Stigmatellin, stigmatellin]", "values": [
      {"measurement": "Percentage inhibition of succinate-cyt c activity", "setting": "[2]; E. tenella, 100 nM stigmatellin, positive control for complex III inhibition", "value": "78.4 ± 13.1", "unit": "% ^2"}
    ]},
    {"smiles": "O=C(O)/C=C/C(=O)O", "note": "[fumarate]", "values": [
      {"measurement": "NADH oxidase specific activity after addition", "setting": "[8]", "value": "1.3 ± 0.3", "unit": "μmol/min/mg protein"}
    ]},
    {"smiles": "O=C(O)CC(=O)O", "note": "[malonate]", "values": [
      {"measurement": "Effect on NADH oxidase / fumarate-dependent NADH oxidation activity", "setting": "[8]; 2 mM KCN on NADH oxidase, 5 mM malonate on fumarate-restored activity in presence of KCN", "value": "abolished; also recorded: completely inhibited"},
      {"measurement": "NADH oxidase specific activity after addition", "setting": "[8]", "value": "−0.5 ± 0.3", "unit": "μmol/min/mg protein"}
    ]}
  ]
}
